Measurements published in the supplement of paper PMC10733146.

What was measured:
Test in all cases: viability relative to DMSO control (fraction); higher = less drug effect (more viable cells)
Details in all cases: 48 h
[1] = system: primary ALL patient cells (S048)
Outline: (§1)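 Viability was measured as CellTiter-Glo luminescence relative to the median of 16 inner DMSO wells. Primary mononuclear tumour cells, fresh or cryopreserved, were Ficoll-isolated from blood or bone marrow or taken from processed lymph node. They were seeded at 4 × 10^4 cells per well into 384-well plates holding pre-plated compounds at five concentrations, one well each, and kept in RPMI-1640 with penicillin/streptomycin, L-glutamine and human serum at 37 °C and 5% CO2 for 48 h.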

[2] = system: primary ALL patient cells (S088)
Outline: as §1

[3] = system: primary AML patient cells (S002)
Outline: as §1

[4] = system: primary AML patient cells (S009)
Outline: as §1

[5] = system: primary AML patient cells (S017)
Outline: as §1

[6] = system: primary AML patient cells (S019)
Outline: as §1

[7] = system: primary AML patient cells (S021)
Outline: as §1

[8] = system: primary AML patient cells (S025)
Outline: as §1

[9] = system: primary AML patient cells (S055)
Outline: as §1

[10] = system: primary AML patient cells (S060)
Outline: as §1

[11] = system: primary AML patient cells (S071)
Outline: as §1

[12] = system: primary AML patient cells (S072)
Outline: as §1

[13] = system: primary AML patient cells (S079)
Outline: as §1

[14] = system: primary AML patient cells (S089)
Outline: as §1

[15] = system: primary AML patient cells (S091)
Outline: as §1

[16] = system: primary B-PLL patient cells (S016)
Outline: as §1

[17] = system: primary DLBCL patient cells (S082)
Outline: as §1

[18] = system: primary FL patient cells (S022)
Outline: as §1

[19] = system: primary FL patient cells (S087)
Outline: as §1

[20] = system: primary MCL patient cells (S053)
Outline: as §1

Work on `Nc1nc(F)nc2c1ncn2[C@@H]1O[C@H](CO)[C@@H](O)[C@@H]1O` [Fludarabine] yielded a viability ([1]; 0.016 µM) of 0.991, a viability ([1]; 0.08 µM) of 0.881 and a viability ([1]; 0.4 µM) of 0.337. For the same molecule, the viability ([1]; 2 µM) was 0.0558, the viability ([1]; 10 µM) was 0.028 and the viability ([2]; 0.016 µM) was 1. It also gave a viability ([2]; 0.08 µM) of 0.975, a viability ([2]; 0.4 µM) of 0.715 and a viability ([2]; 2 µM) of 0.283. For the same molecule, the viability ([2]; 10 µM) was 0.2, the viability ([3]; 0.016 µM) was 1.27 and the viability ([3]; 0.08 µM) was 1.07. For the same molecule, the viability ([3]; 0.4 µM) was 0.9, the viability ([3]; 2 µM) was 0.457 and the viability ([3]; 10 µM) was 0.313. For the same molecule, the viability ([4]; 0.016 µM) was 0.952, the viability ([4]; 0.08 µM) was 0.86 and the viability ([4]; 0.4 µM) was 0.59. For the same molecule, the viability ([4]; 2 µM) was 0.402, the viability ([4]; 10 µM) was 0.359 and the viability ([5]; 0.016 µM) was 1.05. It also gave a viability ([5]; 0.08 µM) of 1.03, a viability ([5]; 0.4 µM) of 1.07 and a viability ([5]; 2 µM) of 0.854. For the same molecule, the viability ([5]; 10 µM) was 0.534, the viability ([6]; 0.016 µM) was 1.17 and the viability ([6]; 0.08 µM) was 0.967. The viability ([6]; 0.4 µM) was 0.605, the viability ([6]; 2 µM) was 0.301 and the viability ([6]; 10 µM) was 0.181. The viability ([7]; 0.016 µM) was 1.04, the viability ([7]; 0.08 µM) was 0.882 and the viability ([7]; 0.4 µM) was 0.579. The viability ([7]; 2 µM) was 0.277, the viability ([7]; 10 µM) was 0.183 and the viability ([8]; 0.016 µM) was 1.09. It also gave a viability ([8]; 0.08 µM) of 0.901, a viability ([8]; 0.4 µM) of 0.506 and a viability ([8]; 2 µM) of 0.275. The viability ([8]; 10 µM) was 0.169, the viability ([9]; 0.016 µM) was 1.05 and the viability ([9]; 0.08 µM) was 0.976. The viability ([9]; 0.4 µM) was 0.937, the viability ([9]; 2 µM) was 0.624 and the viability ([9]; 10 µM) was 0.256. The viability ([10]; 0.016 µM) was 1.02, the viability ([10]; 0.08 µM) was 1.01 and the viability ([10]; 0.4 µM) was 1.06. For the same molecule, the viability ([10]; 2 µM) was 1.03, the viability ([10]; 10 µM) was 0.89 and the viability ([11]; 0.016 µM) was 0.997. The viability ([11]; 0.08 µM) was 0.973, the viability ([11]; 0.4 µM) was 0.491 and the viability ([11]; 2 µM) was 0.195. For the same molecule, the viability ([11]; 10 µM) was 0.135, the viability ([12]; 0.016 µM) was 1.02 and the viability ([12]; 0.08 µM) was 1.08. For the same molecule, the viability ([12]; 0.4 µM) was 0.824, the viability ([12]; 2 µM) was 0.724 and the viability ([12]; 10 µM) was 0.529. It also gave a viability ([13]; 0.016 µM) of 1.05, a viability ([13]; 0.08 µM) of 1.01 and a viability ([13]; 0.4 µM) of 0.819. The viability ([13]; 2 µM) was 0.453, the viability ([13]; 10 µM) was 0.191 and the viability ([14]; 0.016 µM) was 0.949. For the same molecule, the viability ([14]; 0.08 µM) was 1.18, the viability ([14]; 0.4 µM) was 0.878 and the viability ([14]; 2 µM) was 0.597. For the same molecule, the viability ([14]; 10 µM) was 0.401, the viability ([15]; 0.016 µM) was 0.958 and the viability ([15]; 0.08 µM) was 1. The viability ([15]; 0.4 µM) was 0.737, the viability ([15]; 2 µM) was 0.405 and the viability ([15]; 10 µM) was 0.361. For the same molecule, the viability ([16]; 0.016 µM) was 1.08, the viability ([16]; 0.08 µM) was 1.01 and the viability ([16]; 0.4 µM) was 0.929. It also gave a viability ([16]; 2 µM) of 0.535, a viability ([16]; 10 µM) of 0.0968 and a viability ([17]; 0.016 µM) of 1.03. It also gave a viability ([17]; 0.08 µM) of 0.94, a viability ([17]; 0.4 µM) of 0.908 and a viability ([17]; 2 µM) of 0.588. The viability ([17]; 10 µM) was 0.429, the viability ([18]; 0.016 µM) was 1.09 and the viability ([18]; 0.08 µM) was 1.01. The viability ([18]; 0.4 µM) was 0.916, the viability ([18]; 2 µM) was 0.757 and the viability ([18]; 10 µM) was 0.504. For the same molecule, the viability ([19]; 0.016 µM) was 1, the viability ([19]; 0.08 µM) was 0.979 and the viability ([19]; 0.4 µM) was 0.871. It also gave a viability ([19]; 2 µM) of 0.661, a viability ([19]; 10 µM) of 0.463 and a viability ([20]; 0.016 µM) of 1.02. For the same molecule, the viability ([20]; 0.08 µM) was 0.928, the viability ([20]; 0.4 µM) was 0.638 and the viability ([20]; 2 µM) was 0.238. It also gave a viability ([20]; 10 µM) of 0.156.

`Nc1ncn([C@H]2C[C@H](O)[C@@H](CO)O2)c(=O)n1` [Decitabine (Dacogen)] was tested, and the viability ([1]; 0.024 µM) was 0.967, the viability ([1]; 0.12 µM) was 0.89 and the viability ([1]; 0.6 µM) was 0.938. It also gave a viability ([1]; 3 µM) of 0.843, a viability ([1]; 15 µM) of 0.82 and a viability ([2]; 0.024 µM) of 0.978. The viability ([2]; 0.12 µM) was 0.886, the viability ([2]; 0.6 µM) was 0.982 and the viability ([2]; 3 µM) was 0.778. It also gave a viability ([2]; 15 µM) of 0.799, a viability ([3]; 0.024 µM) of 1.03 and a viability ([3]; 0.12 µM) of 1.03. The viability ([3]; 0.6 µM) was 0.952, the viability ([3]; 3 µM) was 0.892 and the viability ([3]; 15 µM) was 0.903. For the same molecule, the viability ([4]; 0.024 µM) was 0.915, the viability ([4]; 0.12 µM) was 0.951 and the viability ([4]; 0.6 µM) was 0.854. The viability ([4]; 3 µM) was 0.859, the viability ([4]; 15 µM) was 0.702 and the viability ([5]; 0.024 µM) was 1.09. It also gave a viability ([5]; 0.12 µM) of 0.954, a viability ([5]; 0.6 µM) of 1.16 and a viability ([5]; 3 µM) of 0.918. It also gave a viability ([5]; 15 µM) of 1.08, a viability ([6]; 0.024 µM) of 1.11 and a viability ([6]; 0.12 µM) of 0.753. For the same molecule, the viability ([6]; 0.6 µM) was 1.04, the viability ([6]; 3 µM) was 0.684 and the viability ([6]; 15 µM) was 0.918. For the same molecule, the viability ([7]; 0.024 µM) was 1.17, the viability ([7]; 0.12 µM) was 0.973 and the viability ([7]; 0.6 µM) was 1.03. For the same molecule, the viability ([7]; 3 µM) was 0.942, the viability ([7]; 15 µM) was 0.818 and the viability ([8]; 0.024 µM) was 0.968. For the same molecule, the viability ([8]; 0.12 µM) was 0.953, the viability ([8]; 0.6 µM) was 0.912 and the viability ([8]; 3 µM) was 0.694. The viability ([8]; 15 µM) was 0.535, the viability ([9]; 0.024 µM) was 1.05 and the viability ([9]; 0.12 µM) was 0.939. For the same molecule, the viability ([9]; 0.6 µM) was 1.03, the viability ([9]; 3 µM) was 0.972 and the viability ([9]; 15 µM) was 1.02. The viability ([10]; 0.024 µM) was 1.01, the viability ([10]; 0.12 µM) was 0.975 and the viability ([10]; 0.6 µM) was 1.02. The viability ([10]; 3 µM) was 0.99, the viability ([10]; 15 µM) was 1.01 and the viability ([11]; 0.024 µM) was 0.995. It also gave a viability ([11]; 0.12 µM) of 0.948, a viability ([11]; 0.6 µM) of 0.934 and a viability ([11]; 3 µM) of 0.792. It also gave a viability ([11]; 15 µM) of 0.756, a viability ([12]; 0.024 µM) of 1.02 and a viability ([12]; 0.12 µM) of 0.93. It also gave a viability ([12]; 0.6 µM) of 0.964, a viability ([12]; 3 µM) of 0.83 and a viability ([12]; 15 µM) of 0.811. The viability ([13]; 0.024 µM) was 1.02, the viability ([13]; 0.12 µM) was 0.953 and the viability ([13]; 0.6 µM) was 0.989. The viability ([13]; 3 µM) was 0.889, the viability ([13]; 15 µM) was 0.814 and the viability ([14]; 0.024 µM) was 0.729. The viability ([14]; 0.12 µM) was 1.06, the viability ([14]; 0.6 µM) was 0.632 and the viability ([14]; 3 µM) was 1.22. It also gave a viability ([14]; 15 µM) of 0.642, a viability ([15]; 0.024 µM) of 0.958 and a viability ([15]; 0.12 µM) of 1.09. For the same molecule, the viability ([15]; 0.6 µM) was 0.83, the viability ([15]; 3 µM) was 0.913 and the viability ([15]; 15 µM) was 0.617. It also gave a viability ([16]; 0.024 µM) of 0.927, a viability ([16]; 0.12 µM) of 0.83 and a viability ([16]; 0.6 µM) of 0.972. For the same molecule, the viability ([16]; 3 µM) was 0.874, the viability ([16]; 15 µM) was 0.88 and the viability ([17]; 0.024 µM) was 0.993. The viability ([17]; 0.12 µM) was 0.936, the viability ([17]; 0.6 µM) was 0.973 and the viability ([17]; 3 µM) was 0.908. The viability ([17]; 15 µM) was 0.967, the viability ([18]; 0.024 µM) was 1.12 and the viability ([18]; 0.12 µM) was 0.952. For the same molecule, the viability ([18]; 0.6 µM) was 1.01, the viability ([18]; 3 µM) was 0.937 and the viability ([18]; 15 µM) was 0.962. The viability ([19]; 0.024 µM) was 0.969, the viability ([19]; 0.12 µM) was 0.89 and the viability ([19]; 0.6 µM) was 0.981. For the same molecule, the viability ([19]; 3 µM) was 0.864, the viability ([19]; 15 µM) was 0.966 and the viability ([20]; 0.024 µM) was 0.969. The viability ([20]; 0.12 µM) was 0.824, the viability ([20]; 0.6 µM) was 0.878 and the viability ([20]; 3 µM) was 0.807. The viability ([20]; 15 µM) was 0.735.
